Laboratory results from ChEMBL document CHEMBL5728754 (2021).

These compounds were tested against Mitogen-activated protein kinase kinase kinase kinase 1 (Homo sapiens, UniProt Q92918) (assay: HPK1 Biochemical Enzyme Assay: HPK1 enzyme inhibition was measured using a microfluidic mobility shift assay (MSA). The reactions were conducted in 50 μL volumes in 96-well plates, and contained 0.5 nM human full-length recombinant HPK1, 3 μM phosphoacceptor peptide, 5FAM-[…]-COOH (CPC Scientific, Sunnyvale, Calif.), test compound (11-dose 3-fold serial dilutions, 2% DMSO final) or DMSO only, 0.002% Tween-20, 1 mM DTT and 2.5 mM MgCl2 in 50 mM MOPS (3-(N-morpholino)propanesulfonic acid), pH 7.8, buffer and were initiated by addition of 75 μM ATP, following a 20-min preincubation. The reactions were conducted for 60 min at 37° C., stopped by the addition of 50 μL of 0.015 M EDTA, pH 8, and the extent of reactions (˜15-20% conversion with no inhibitor) was determined after electrophoretic separation of the fluorescently labeled peptide substrate and phosphorylated product on an LabChip EZ Reader II (PerkinElmer, Inc., Waltham, Mass.).Inhibition of HPK1 was also measured using the fluorescence based chelation-enhanced fluorescence (CHEF) method (1), using a proprietary fluorescent peptide substrate, in which a cysteine residue is alkylated with a sulfonamido-oxine based derivative to afford an amino acid termed C-Sox (CSx). The assay was conducted similarly as described for the MSA method above, but using 3 μM Ac-[CSx][…]-amide peptide substrate (also known as AQT0178 when purchased from AssayQuant Technologies Inc., Hopkinton, Mass.) and 45 μM ATP. Initial reaction velocities were determined by following the peptide fluorescence (λex=360 nm, λem=500 nm) at 30° C. for 15 min in a Tecan M1000 plate reader (Tecan Group Ltd., Männedorf, Zürich, Switzerland). […] HPK1 protein was produced in-house and preactivated by autophosphorylation of enzyme with MgATP as described in the section “Production of recombinant autophosphorylated full-length HPK1”.).
Chain of Mitogen-activated protein kinase kinase kinase kinase 1 (Q92918 whole entry): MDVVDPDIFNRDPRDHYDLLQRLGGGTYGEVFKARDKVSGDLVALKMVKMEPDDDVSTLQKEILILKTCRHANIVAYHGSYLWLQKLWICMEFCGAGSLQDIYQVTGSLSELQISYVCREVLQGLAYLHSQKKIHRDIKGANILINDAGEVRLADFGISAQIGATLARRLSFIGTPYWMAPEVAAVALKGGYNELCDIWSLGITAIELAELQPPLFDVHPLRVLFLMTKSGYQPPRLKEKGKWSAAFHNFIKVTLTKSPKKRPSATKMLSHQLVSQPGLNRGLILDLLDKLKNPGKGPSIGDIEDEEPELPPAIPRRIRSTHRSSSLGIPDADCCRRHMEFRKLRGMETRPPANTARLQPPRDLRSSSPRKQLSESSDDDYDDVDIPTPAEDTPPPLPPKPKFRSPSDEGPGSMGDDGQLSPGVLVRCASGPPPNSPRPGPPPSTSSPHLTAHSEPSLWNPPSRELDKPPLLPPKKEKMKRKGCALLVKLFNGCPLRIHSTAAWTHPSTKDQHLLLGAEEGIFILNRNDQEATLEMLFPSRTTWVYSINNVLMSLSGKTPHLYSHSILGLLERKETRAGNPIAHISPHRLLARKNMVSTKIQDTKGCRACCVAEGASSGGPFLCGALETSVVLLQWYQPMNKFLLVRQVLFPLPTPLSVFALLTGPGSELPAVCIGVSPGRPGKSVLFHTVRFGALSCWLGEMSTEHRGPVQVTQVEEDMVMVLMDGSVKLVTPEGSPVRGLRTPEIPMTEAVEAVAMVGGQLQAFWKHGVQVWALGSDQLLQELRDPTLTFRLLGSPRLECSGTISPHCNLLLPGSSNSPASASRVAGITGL
Type: single protein

Row | Compound | Ki
1 | CNCc1nc(NC)cc2c1CN(c1cccc(-c3nncn3C(C)C)n1)C2=O | 0.72 nM
2 | CCn1c(C)nnc1-c1cccc(N2Cc3c(cc(N4CCC[C@H]4C)nc3CNC)C2=O)n1 | 0.09 nM
3 | Cc1nnc(-c2cccc(N3Cc4c(cc(N5CCCC5(C)C)nc4CN)C3=O)n2)n1C(C)C | 0.1 nM
4 | CNCc1nc(N2CCCC2)cc2c1CN(c1cccc(-c3nncn3[C@@H](C)CC(F)(F)F)n1)C2=O | < 0.07 nM
